# Results published in publication PMC7031696 (Cell chemical biology, 2019).
# Test system: 3D7-MR4 trophozoite parasite-infected RBCs
# Assay: Metabolomic profiling (hydrophilic metabolite changes, UHPLC-MS)
# Type: cell-based, Plasmodium falciparum
smiles,measurement,setting,value
CN(C)Cc1ccc(-c2cc3c(-c4ccc(CN(C)C)cc4)ccnc3[nH]2)cc1.O=C(O)C(F)(F)F [MMV022224],peptide levels (hemoglobin catabolism signature),"10 × IC50^72h, 2.5 hr, trophozoites",increased levels of peptides
same,Log2(fold changes) 1_3-Bisphosphoglyceric acid,"metabolite 1_3-Bisphosphoglyceric acid, log2 fold change",0.0000
same,Log2(fold changes) 2-Hydroxy-2-methylbutanedioic acid,"metabolite 2-Hydroxy-2-methylbutanedioic acid, log2 fold change",0.1756
same,Log2(fold changes) 2-Isopropylmalic acid,"metabolite 2-Isopropylmalic acid, log2 fold change",0.0000
same,Log2(fold changes) 2-dehydro-D-gluconate,"metabolite 2-dehydro-D-gluconate, log2 fold change",0.3564
same,Log2(fold changes) 2-oxo-4-methylthiobutanoate,"metabolite 2-oxo-4-methylthiobutanoate, log2 fold change",0.0000
same,Log2(fold changes) 2_3-Diphosphoglyceric acid,"metabolite 2_3-Diphosphoglyceric acid, log2 fold change",-0.1549
same,Log2(fold changes) 3-phosphoglycerate,"metabolite 3-phosphoglycerate, log2 fold change",-0.0795
same,Log2(fold changes) 3-phosphoserine,"metabolite 3-phosphoserine, log2 fold change",-0.1712
same,Log2(fold changes) 4-Pyridoxic acid,"metabolite 4-Pyridoxic acid, log2 fold change",0.0566
same,Log2(fold changes) 4-aminobutyrate,"metabolite 4-aminobutyrate, log2 fold change",-0.2938
same,Log2(fold changes) 4-phosphopantetheine,"metabolite 4-phosphopantetheine, log2 fold change",-0.5209
same,Log2(fold changes) 4-phosphopantothenate,"metabolite 4-phosphopantothenate, log2 fold change",0.0735
same,Log2(fold changes) 5-aminopentanoic acid,"metabolite 5-aminopentanoic acid, log2 fold change",0.0000
same,Log2(fold changes) 5-methyl-THF,"metabolite 5-methyl-THF, log2 fold change",0.0000
same,Log2(fold changes) 5-phosphoribosyl-1-pyrophosphate,"metabolite 5-phosphoribosyl-1-pyrophosphate, log2 fold change",-0.7551
same,Log2(fold changes) 6-phospho-D-gluconate,"metabolite 6-phospho-D-gluconate, log2 fold change",-0.0328
same,Log2(fold changes) ADP-D-glucose,"metabolite ADP-D-glucose, log2 fold change",0.0037
same,Log2(fold changes) Acetyl-glycine,"metabolite Acetyl-glycine, log2 fold change",0.0000
same,Log2(fold changes) Acetyllysine,"metabolite Acetyllysine, log2 fold change",0.0000
same,Log2(fold changes) Aminoadipic acid,"metabolite Aminoadipic acid, log2 fold change",0.0000
same,Log2(fold changes) CDP,"metabolite CDP, log2 fold change",-0.4119
same,Log2(fold changes) CDP-choline,"metabolite CDP-choline, log2 fold change",0.2972
same,Log2(fold changes) CDP-ethanolamine,"metabolite CDP-ethanolamine, log2 fold change",0.0000
same,Log2(fold change) of CMP,metabolite CMP,0.3976
same,Log2(fold change) of CTP,metabolite CTP,-0.2057
same,Log2(fold changes) Citraconic acid,"metabolite Citraconic acid, log2 fold change",0.0000
same,Log2(fold change) of D-glucarate,metabolite D-glucarate,0.0159
same,Log2(fold change) of D-gluconate,metabolite D-gluconate,-0.4042
same,Log2(fold change) of D-glucosamine-1/6-phosphate,metabolite D-glucosamine-1/6-phosphate,0.0000
same,Log2(fold change) of D-sedoheptulose-1/7-phosphate,metabolite D-sedoheptulose-1/7-phosphate,0.3067
same,Log2(fold change) of DL-Pipecolic Acid,metabolite DL-Pipecolic Acid,0.0000
same,Log2(fold change) of DLH,metabolite DLH,0.8439
same,Log2(fold change) of DLS,metabolite DLS,0.5887
same,Log2(fold change) of Decanoyl-CoA,metabolite Decanoyl-CoA,0.0000
same,Log2(fold change) of EV,metabolite EV,0.0000
same,Log2(fold change) of FAD,metabolite FAD,0.8383
same,Log2(fold change) of FMN,metabolite FMN,0.1361
same,Log2(fold change) of G3P/DHAP,metabolite G3P/DHAP,0.0585
same,Log2(fold change) of GDP,metabolite GDP,-0.5545
same,Log2(fold change) GMP,metabolite GMP,-0.0052
same,Log2(fold change) GTP,metabolite GTP,-0.2843
same,Log2(fold change) HVDD,metabolite HVDD,0.7226
same,Log2(fold change) Hexose,metabolite Hexose,0.3496
same,Log2(fold change) Hydroxyisocaproic acid,metabolite Hydroxyisocaproic acid,0.0000
same,Log2(fold change) IDP,metabolite IDP,0.0000
same,Log2(fold change) IMP,metabolite IMP,0.0372
same,Log2(fold change) Inositol,metabolite Inositol,0.0000
same,Log2(fold change) Isopentyl-PP,metabolite Isopentyl-PP,0.0000
same,Log2(fold change) L-arginino-succinate,metabolite L-arginino-succinate,-0.1932
same,Log2(fold change) LD,metabolite LD,0.8668
same,Log2(fold change) Myristoyl/tetradecanoyl-CoA,metabolite Myristoyl/tetradecanoyl-CoA,0.0000
same,Log2(fold change) N-Acetyl-L-alanine,metabolite N-Acetyl-L-alanine,-0.6716
same,Log2(fold change) N-acetyl-L-ornithine,metabolite N-acetyl-L-ornithine,0.0000
same,Log2(fold change) N-acetyl-glucosamine-1/6-phosphate,metabolite N-acetyl-glucosamine-1/6-phosphate,-0.1039
same,Log2(fold change) N-acetyl-glutamate,metabolite N-acetyl-glutamate,-0.3449
same,Log2(fold change) N-acetyl-glutamine,metabolite N-acetyl-glutamine,-1.3853
same,Log2(fold change) N-carbamoyl-L-aspartate,metabolite N-carbamoyl-L-aspartate,-0.1955
same,Log2(fold change) NAD+,metabolite NAD+,-0.0358
same,Log2(fold change) NADH,metabolite NADH,1.5825
same,Log2(fold change) NADP+,metabolite NADP+,0.0717
same,Log2(fold change) NADPH,metabolite NADPH,1.3580
same,Log2(fold change) O-acetyl-L-serine,metabolite O-acetyl-L-serine,0.0000
same,Log2(fold change) Octoluse 8/1P,metabolite Octoluse 8/1P,0.5111
same,Log2(fold change) Octoluse Bisphosphate,metabolite Octoluse Bisphosphate,-0.3203
same,Log2(fold change) PD,metabolite PD,-0.9637
same,Log2(fold change) PE,metabolite PE,0.0520
same,Log2(fold change) PEE,metabolite PEE,0.3860
same,Log2(fold change) PEEK,metabolite PEEK,1.9585
same,Log2(fold change) PVNF,metabolite PVNF,0.5887
same,Log2(fold change) Pyroglutamic acid,metabolite Pyroglutamic acid,-0.2368
same,Log2(fold change) Pyrophosphate,metabolite Pyrophosphate,0.0000
same,Log2(fold change) Ribose-5-phosphate,metabolite Ribose-5-phosphate,-0.2008
same,Log2(fold change) S-adenosyl-L-homocysteine,metabolite S-adenosyl-L-homocysteine,0.3352
same,Log2(fold change) S-adenosyl-L-methioninamine,metabolite S-adenosyl-L-methioninamine,0.0000
same,Log2(fold change) S-adenosyl-L-methionine,metabolite S-adenosyl-L-methionine,0.0000
same,Log2(fold change) S-methyl-5'-thioadenosine,metabolite S-methyl-5'-thioadenosine,0.2721
same,Log2(fold change) SD,metabolite SD,-0.1612
same,Log2(fold change) SDL,metabolite SDL,0.5371
same,Log2(fold change) SID,metabolite SID,0.0000
same,Log2(fold change) Sedoheptulose bisphosphate,metabolite Sedoheptulose bisphosphate,0.0035
same,Log2(fold change) Thiamine pyrophosphate,metabolite Thiamine pyrophosphate,-0.0731
same,Log2(fold changes) UDP-D-glucose,"metabolite UDP-D-glucose, log2 fold change",0.0091
same,Log2(fold changes) UDP-D-glucuronate,"metabolite UDP-D-glucuronate, log2 fold change",-0.1151
same,Log2(fold changes) UDP-N-acetyl-glucosamine,"metabolite UDP-N-acetyl-glucosamine, log2 fold change",-0.0367
same,Log2(fold changes) UDP,"metabolite UDP, log2 fold change",-0.5308
same,Log2(fold changes) UMP,"metabolite UMP, log2 fold change",0.0364
same,Log2(fold changes) UTP,"metabolite UTP, log2 fold change",-0.1207
same,Log2(fold changes) VD,"metabolite VD, log2 fold change",0.0000
same,Log2(fold changes) Xanthurenic acid,"metabolite Xanthurenic acid, log2 fold change",0.0000
same,Log2(fold changes) a-ketoglutarate,"metabolite a-ketoglutarate, log2 fold change",-0.4532
same,Log2(fold changes) acetyl-CoA,"metabolite acetyl-CoA, log2 fold change",-0.3299
same,Log2(fold changes) acetyl-aspartate,"metabolite acetyl-aspartate, log2 fold change",-0.2105
same,Log2(fold changes) acetylphosphate,"metabolite acetylphosphate, log2 fold change",0.0000
same,Log2(fold changes) aconitate,"metabolite aconitate, log2 fold change",-0.2855
same,Log2(fold changes) adenine,"metabolite adenine, log2 fold change",0.0812
same,Log2(fold changes) adenosine 5'-phosphosulfate,"metabolite adenosine 5'-phosphosulfate, log2 fold change",0.0000
